# Data taken from US12409171B2, “Pharmaceutically active pyrazolo-pyridone modulators of DCN1/2-mediated cullin neddylation” (UNIVERSITY OF KENTUCKY RESEARCH FOUNDATION, priority 2019, dated 2025).
# Target: T1, DCN1 (Homo sapiens (Human), UniProt Q96GG9)
# Test: not given
# Settings: class symbols H, M, M-L, legend not given; cited from earlier work
# T1 sequence (Q96GG9 whole entry): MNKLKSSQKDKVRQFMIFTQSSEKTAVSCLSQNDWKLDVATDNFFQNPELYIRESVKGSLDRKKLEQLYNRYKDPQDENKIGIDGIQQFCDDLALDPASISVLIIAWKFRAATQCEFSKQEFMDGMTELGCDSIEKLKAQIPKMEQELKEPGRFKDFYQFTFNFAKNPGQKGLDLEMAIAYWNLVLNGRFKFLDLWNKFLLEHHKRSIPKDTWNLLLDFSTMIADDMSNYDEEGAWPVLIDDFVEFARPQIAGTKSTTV
row,SMILES,Pulse-Chase inh @ 30 uM
1,Cc1nn(C)c2c1[C@@H](c1ccc(F)c(F)c1)[C@H](NC(=O)c1ccc(Cl)cc1)C(=O)N2 (racemic) [SJ000399589],M-L
2,COc1ccc([C@@H]2c3c(C)nn(C)c3NC(=O)[C@H]2NC(=O)c2cccc(C)c2)cc1F (racemic) [SJ000398158],M-L

# Target: T1, DCN1
# Test: TR-FRET binding assay (biotin-DCN1 / Ac-UBE2M12-AlexaFluor488)
# Settings: mean ± SD (n); read-out: DCN1_TRFRET Mean EC50
# In short: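 Biotinylated DCN1 binding to Ac-UBE2M12-AlexaFluor488 read by TR-FRET; assay cocktail pre-incubated 1 h at room temperature before compounds added from DMSO stocks by pin transfer. IC50 is the mean of three replicates ± SD; compounds tested in triplicate or more.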
row,SMILES,EC50 [nM]
1,"Cc1cccc(C(=O)N[C@@H]2C(=O)N(C)c3c(c(C)nn3C(C)(C)C)[C@@H]2c2ccc(F)cc2)c1 [RG-0007412, N-[(4S,5S)-1-tert-butyl-4-(4-fluorophenyl)-3,7-dimethyl-6-oxo-1H,4H,5H,6H,7H-pyrazolo[3,4-b]pyridin-5-yl]-3-methylbenzamide]",2340 ± 745
2,"CCN1C(=O)[C@@H](NC(=O)c2cccc(C)c2F)[C@@H](c2ccc(F)cc2)c2c(C)nn(-c3ccccc3)c21 [RG-0014165, N-[(4S,5S)-7-ethyl-4-(4-fluorophenyl)-3-methyl-6-oxo-1-phenyl-1H,4H,5H,6H,7H-pyrazolo[3,4-b]pyridin-5-yl]-2-fluoro-3-methylbenzamide]",541 ± 68.1
3,"CCN1C(=O)[C@@H](NC(=O)c2cccc(C(F)(F)F)c2)[C@@H](c2ccc(F)cc2)c2c(CN3CCC(C)CC3)nn(-c3ccccc3)c21 [RG-0014143, N-[(4S,5S)-7-ethyl-4-(4-fluorophenyl)-3-[(4-methylpiperidin-1-yl)methyl]-6-oxo-1-phenyl-1H,4H,5H,6H,7H-pyrazolo[3,4-b]pyridin-5-yl]-3-(trifluoromethyl)benzamide]",82.7 ± 7.69
4,"CCCN1CCN2C(=O)[C@@H](NC(=O)c3cccc(C)c3)[C@@H](c3ccc(F)cc3)C(C(C)=O)=C12 [RG-0008677, N-[(6S,7S)-8-acetyl-7-(4-fluorophenyl)-5-oxo-1-propyl-1H,2H,3H,5H,6H,7H-imidazo[1,2-a]pyridin-6-yl]-3-methylbenzamide]",5790
5,"CC(=O)CN1C(=O)[C@@H](NC(=O)c2cccc(C)c2)[C@@H](c2ccc(F)cc2)c2c(C)nn(-c3ccccc3)c21 [RG-0009508, N-[(4S,5S)-4-(4-fluorophenyl)-3-methyl-6-oxo-7-(2-oxopropyl)-1-phenyl-1H,4H,5H,6H,7H-pyrazolo[3,4-b]pyridin-5-yl]-3-methylbenzamide]",7050 ± 1670
6,"CCN1C(=O)[C@@H](NC(=O)c2cccc(C(F)(F)F)c2)[C@@H](c2ccc(F)cc2)c2c(CN3CCC(F)CC3)nn(-c3ccccc3)c21 [RG-0014147, N-[(4S,5S)-7-ethyl-4-(4-fluorophenyl)-3-[(4-fluoropiperidin-1-yl)methyl]-6-oxo-1-phenyl-1H,4H,5H,6H,7H-pyrazolo[3,4-b]pyridin-5-yl]-3-(trifluoromethyl)benzamide]",112 ± 16
7,"CCN1C(=O)[C@@H](N)[C@@H](c2ccc(F)cc2)c2c(C)nn(-c3ccccc3)c21 [RG-0013837, (4S,5S)-5-amino-7-ethyl-4-(4-fluorophenyl)-3-methyl-1-phenyl-1H,4H,5H,6H,7H-pyrazolo[3,4-b]pyridin-6-one]",> 36500
8,"Cc1nn(-c2ccccc2)c2c1[C@H](c1ccc(F)cc1)[C@H](N(C)C(=O)c1cccc(C(F)(F)F)c1)C(=O)N2C [RG-0008886, N-[(4S,5S)-4-(4-fluorophenyl)-3,7-dimethyl-6-oxo-1-phenyl-1H,4H,5H,6H,7H-pyrazolo[3,4-b]pyridin-5-yl]-N-methyl-3-(trifluoromethyl)benzamide]",> 36500
9,"Cc1nn(-c2ccccc2)c2c1[C@H](c1ccc(F)cc1)[C@H](NC(=O)c1cccc(C(F)(F)F)c1)C(=O)N2C1CCC1 [RG-0013050, N-[(4S,5S)-7-cyclobutyl-4-(4-fluorophenyl)-3-methyl-6-oxo-1-phenyl-1H,4H,5H,6H,7H-pyrazolo[3,4-b]pyridin-5-yl]-3-(trifluoromethyl)benzamide]",2580 ± 247
10,"CCN1C(=O)[C@@H](NC(=O)c2cccc(C(F)(F)F)c2)[C@@H](c2ccc(C)s2)c2c(C)nn(-c3ccccc3)c21 [RG-0014004, N-[(4S,5S)-7-ethyl-3-methyl-4-(5-methylthiophen-2-yl)-6-oxo-1-phenyl-1H,4H,5H,6H,7H-pyrazolo[3,4-b]pyridin-5-yl]-3-(trifluoromethyl)benzamide]",1410 ± 15.9
11,"CCN1C(=O)[C@@H](NC(=O)c2cccc([N+](=O)[O-])c2)[C@@H](c2ccc(F)cc2)c2c(C)nn(-c3ccccc3)c21 [RG-0013844, N-[(4S,5S)-7-ethyl-4-(4-fluorophenyl)-3-methyl-6-oxo-1-phenyl-1H,4H,5H,6H,7H-pyrazolo[3,4-b]pyridin-5-yl]-3-nitrobenzamide]",1980 ± 134
12,"CCOC(=O)Cn1nc(C)c2c1N(CC)C(=O)[C@@H](NC(=O)c1cccc(C(F)(F)F)c1)[C@H]2c1ccc(F)cc1 [RG-0014038, ethyl 2-[(4S,5S)-7-ethyl-4-(4-fluorophenyl)-3-methyl-6-oxo-5-[3-(trifluoromethyl)benzamido]-1H,4H,5H,6H,7H-pyrazolo[3,4-b]pyridin-1-yl]acetate]",3530 ± 458
13,"C#CCOCc1nn(-c2ccccc2)c2c1[C@H](c1ccc(F)cc1)[C@H](NC(=O)c1cccc(C)c1)C(=O)N2CC [RG-0013055, N-[(4S,5S)-7-ethyl-4-(4-fluorophenyl)-6-oxo-1-phenyl-3-[(prop-2-yn-1-yloxy)methyl]-1H,4H,5H,6H,7H-pyrazolo[3,4-b]pyridin-5-yl]-3-methylbenzamide]",168 ± 8.1
14,"COC(=O)CN1C(=O)[C@@H](NC(=O)c2cccc(C(F)(F)F)c2)[C@@H](c2ccc(F)cc2)c2c(C)nn(-c3ccccc3)c21 [RG-0013841, methyl 2-[(4S,5S)-4-(4-fluorophenyl)-3-methyl-6-oxo-1-phenyl-5-[3-(trifluoromethyl)benzamido]-1H,4H,5H,6H,7H-pyrazolo[3,4-b]pyridin-7-yl]acetate]",5540 ± 1080
15,"CCN1C(=O)[C@@H](NC(=O)c2cccc(-c3ccccc3)c2)[C@@H](c2ccc(F)cc2)c2c(C)nn(-c3ccccc3)c21 [RG-0013978, N-[(4S,5S)-7-ethyl-4-(4-fluorophenyl)-3-methyl-6-oxo-1-phenyl-1H,4H,5H,6H,7H-pyrazolo[3,4-b]pyridin-5-yl]-[1,1′-biphenyl]-3-carboxamide]",1310 ± 97.3
16,"CCN1C(=O)[C@@H](NC(=O)c2cccc(C)c2)[C@@H](c2ccc(F)cc2)c2c(C)nn(C3CCCC3)c21 [RG-0008878, N-[(4S,5S)-1-cyclopentyl-7-ethyl-4-(4-fluorophenyl)-3-methyl-6-oxo-1H,4H,5H,6H,7H-pyrazolo[3,4-b]pyridin-5-yl]-3-methylbenzamide]",770 ± 76.1
17,"CCN1C(=O)[C@@H](NC(=O)c2cccc(C)c2)[C@@H](c2ccc(F)cc2)c2c(C)nn(C3CC3)c21 [RG-0008872, N-[(4S,5S)-1-cyclopropyl-7-ethyl-4-(4-fluorophenyl)-3-methyl-6-oxo-1H,4H,5H,6H,7H-pyrazolo[3,4-b]pyridin-5-yl]-3-methylbenzamide]",190 ± 35.6
18,"CCN1C(=O)[C@@H](NC(=O)c2cccc(C(F)(F)F)c2)[C@@H](c2ccc(F)cc2)c2c(CNC(=O)OC)nn(-c3ccccc3)c21 [RG-0014054, methyl N-{[(4S,5S)-7-ethyl-4-(4-fluorophenyl)-6-oxo-1-phenyl-5-[3-(trifluoromethyl)benzamido]-1H,4H,5H,6H,7H-pyrazolo[3,4-b]pyridin-3-yl]methyl}carbamate]",114 ± 4.73
19,"Cc1cccc(C(=O)N[C@@H]2C(=O)N3CCCn4nc(C)c(c43)[C@@H]2c2ccc(F)cc2)c1 [RG-0008682, N-[(5S,6S)-5-(4-fluorophenyl)-3-methyl-7-oxo-1,2,8-triazatricyclo[6.3.1.0^4,^12]dodeca-2,4(12)-dien-6-yl]-3-methylbenzamide]",12300
